Data set [1] concerns the target D508N mutant (Homo sapiens, UniProt Q9NQ11, D513N). The conditions noted are these: 100 µM SPM. Here is the method:
Membrane fractionation - Transduced SH-SY5Y cells were seeded in […] at a density of 6 x 10^6 cells per plate. 24 h later, the cells were harvested following trypsinization and brief centrifugation (300 x g, 5 min). Subcellular fractionation was performed by differential centrifugation. The microsomal protein concentration was measured using the bicinchoninic acid assay (Thermo Fischer Scientific, Pierce) according to the manufacturer's instructions.
ATPase assay - The ATPase activity of ATP13A2 was assessed using a commercially available luminescence assay (ADP-Glo Max assay, Promega) that monitors the production of ADP via luciferase activity. The reactions were performed for 30 min (37°C) in a final volume of 25 µl. The assay reaction mixture contained 50 mM MOPS-KOH (pH 7), 100 mM KCI, 11 mM MgCl2, 1 mM DTT, 195 µM DDM, various concentrations of the indicated compound, and either microsomes (5 µg) harvested from SH-SY5Y cells overexpressing ATP13A2 (WT or mutants) or purified ATP13A2 (0.5 µg). When purified ATP13A2 was used, we included 125 µM PA, 125 µM PI(3,5)P2 and 19.5 µM DDM in the reaction buffer. […] After 40 min, luminescence was detected using a FlexStation 3.0 system (Molecular Devices). Dose-response curves and n/Km/Vmax values were calculated using GraphPad Prism Software (GraphPad Software Inc.).

Data set [2] deals with SH-SY5Y cells. The conditions noted are these: KO and KO/D508N cells; SPM 10 µM, 4 h.
Experimental: BODIPY-SPM localization and lysosomal rupture analysis - For all immunofluorescent stainings SH-SY5Y cell lines were seeded in 12-well plates (0.25 X 10^5 cells per well on coverslips) and the next day, the cells were incubated with the indicated compounds for 4 h at 37°C. For BODIPY-SPM analysis, cells were pulsed with 5 µM SPM for 15 min, washed and chased in fresh media for a further 1 h and 45 min at 37°C. Following treatments, the cells were washed twice in PBS, fixed in 4% paraformaldehyde for 30 min (37°C), washed in PBS and stored at 4°C. For immunofluorescence staining, the cells were washed in PBS containing 0.5% Tween 20 (PBS-T), permeabilized in PBS containing 0.1% Triton X-100 (30 min) and blocked first in 0.1 M glycine and then in PBS-T containing 1% fetal calf serum and 10% BSA. Gal-3-, LAMP1- and cathepsin B-specific antibodies were used at a dilution of 1:100-200 (in PBS-T containing 1% BSA) overnight at 4°C. Subsequently, the samples were washed and incubated with Alexa Fluor™ secondary antibody (1:1,000, 30 min). To assess FITC-dextran release, cells were loaded with 50 µg/ml FITC-dextran for 72 h, cells were then washed and placed in fresh media for 1 h prior to SPM (10 µM) addition. To visualize the nucleus, all samples were stained with DAPI. […]

Molecules are shown by their SMILES.

D508N mutant, sequence (Q9NQ11 1-1175 isoform Q9NQ11-3 D508N): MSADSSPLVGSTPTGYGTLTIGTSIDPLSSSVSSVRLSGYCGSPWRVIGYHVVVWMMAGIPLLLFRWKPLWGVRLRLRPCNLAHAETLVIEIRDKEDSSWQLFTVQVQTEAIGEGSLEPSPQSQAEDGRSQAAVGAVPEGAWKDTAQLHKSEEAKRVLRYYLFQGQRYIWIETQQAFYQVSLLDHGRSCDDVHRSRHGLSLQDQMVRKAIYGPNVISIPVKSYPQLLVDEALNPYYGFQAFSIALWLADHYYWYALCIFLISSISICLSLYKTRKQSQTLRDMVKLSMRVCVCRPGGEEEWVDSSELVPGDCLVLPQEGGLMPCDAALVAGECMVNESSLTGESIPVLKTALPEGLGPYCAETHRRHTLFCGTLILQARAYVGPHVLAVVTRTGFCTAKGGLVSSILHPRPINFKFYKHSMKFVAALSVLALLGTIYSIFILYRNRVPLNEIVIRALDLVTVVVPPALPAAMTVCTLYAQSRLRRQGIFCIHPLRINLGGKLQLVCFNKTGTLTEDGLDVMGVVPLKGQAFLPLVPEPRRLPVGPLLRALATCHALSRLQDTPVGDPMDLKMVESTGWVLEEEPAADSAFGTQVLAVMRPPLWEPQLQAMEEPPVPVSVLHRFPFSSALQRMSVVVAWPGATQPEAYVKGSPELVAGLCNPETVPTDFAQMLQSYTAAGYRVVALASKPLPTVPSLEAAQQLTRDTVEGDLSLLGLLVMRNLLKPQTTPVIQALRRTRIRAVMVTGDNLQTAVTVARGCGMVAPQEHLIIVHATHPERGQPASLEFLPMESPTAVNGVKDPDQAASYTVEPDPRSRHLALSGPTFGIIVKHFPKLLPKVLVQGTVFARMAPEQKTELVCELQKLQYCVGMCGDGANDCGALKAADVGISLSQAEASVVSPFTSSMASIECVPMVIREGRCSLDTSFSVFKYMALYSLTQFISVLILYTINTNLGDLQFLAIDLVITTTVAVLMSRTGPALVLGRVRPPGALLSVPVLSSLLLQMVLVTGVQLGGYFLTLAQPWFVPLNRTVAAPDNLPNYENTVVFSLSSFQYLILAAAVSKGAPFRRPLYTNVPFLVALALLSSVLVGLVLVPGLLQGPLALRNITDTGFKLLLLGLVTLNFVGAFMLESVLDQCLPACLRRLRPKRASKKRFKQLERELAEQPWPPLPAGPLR

In the case of `NCCCNCCCCNCCCN` [Spermine, spermine], the “ATPase activity of D508N mutant” value in data set [1] is reported as “had no effect”. Also, in data set [2], the “endogenous Gal-3 punctae” value was “increased both the number and size”.
